Results as given in EP0457908A1, “HYDROCHLORIDE 2,3,3a,4,5,6-HEXAHYDRO-8-CYCLOHEXYL-1H-PYRAZINO (3,2,1-j,k)CARBAZOL, METHOD OF OBTAINING IT AND A PHARMACEUTICAL PREPARATION OF ANTIDEPRESSIVE ACTION BASED ON IT” (priority 1989, dated 1991).
Like-named read-outs stand apart in the source and are kept apart here.

How the values were obtained:
white mice = experiment: Porsolt's swimming behaviour test (duration of immobilization); assay type: in vivo; conditions: for Duration of immobilization, %: distilled water = 100
Description: The effect of the compound according to the present invention on the duration of immobilization in Porsolt's swimming behaviour test (Porsolt et al., 1977) in experiments on white mice of both sexes with a mass of 16-18 g. […] Sixty minutes after the last (or a single) administration of the preparations, the mice were placed into cylinders (10 cm diameter, 25 cm height) filled with water to 6 cm. The temperature of water was 21-22 °C. […] The number and duration of all stops in swimming (immobilization) over the observation period were recorded.

white rats = experiment: Stereotypy induced by d,l-amphetamine; assay type: in vivo; conditions: distilled water = 100
Description: To evaluate the influence on stereotypy, the experiments were carried out on white rats of both sexes with a mass of 100-150 g. […] Stereotypy was assessed in points of from to 3 (after Janssen et al., 1967).

male white mice = experiment: Hyperlocomotion induced by d,l-amphetamine; assay type: in vivo; conditions: 10-20 minutes after d,l-amphetamine 2.5 mg/kg intraperitoneally, distilled water 1,924.5±177.6
Description: The influence on hyperlocomotion induced by d,l-amphetamine was studied in experiments on male white mice with a mass of 20-22 g.
The locomotive activity of the mice was recorded 10-20 minutes after administration of d,l-amphetamine for 10 minutes.

cats = experiment: Bioelectrical activity of the brain (electroencephalogram), cats; assay type: in vivo
From the text: (§1) The study of the effect on the bioelectrical activity of the brain was effected in acute experiments using 8 consious cats immobilized with diplacin with a mass of 2.5-3.4 kg under conditions of a controlled breathing and 25 rabbits with a mass of 2.6-3.1 kg with chronically implanted electrodes. Recorded on an electroencephalograph was an electroencephalogram of the sensomotor, parietal and visual regions of the cerebral cortex in cats, plus that of the reticular formation of the midbrain, dorsal hippocamp and amygdala in rabbits.

rabbits = experiment: Bioelectrical activity of the brain (electroencephalogram), rabbits; assay type: in vivo
From the text: as §1

male rats = experiment: Conditional reflex of passive avoidance after amnesia (antiamnestic effect); assay type: in vivo; conditions: 1 mg/kg oral
Description: Also studied was the effect of the compound according to the present invention on reproduction of the memory traces upon amnesia.
The experiments were carried out using male rats of a mass of 180-220 g.
The antiamnestic effect of the compound according to the present invention was assessed by the method of a conditional reflex of a passive avoidance with a subsequent use, as amnesic factors, of an electric shock (50 mA, 0.3 ms) through ear electrodes or scopolamine (1 mg/kg hypodermally).
The learning of the conditional reflex of a passive avoidance was effected by the "Step-down" method (Izquerdo, 1981) in an experimental unit consisting of a 30x30x40 cm chamber with an electrified floor having in its centre a plastic platform of 10x15x0.5 cm size. A rat was placed onto the platform and a latent period of its escape therefrom was recorded (in seconds). When escaping the platform onto the floor, the rat was subjected to an electric irritation on paws (0.5 mA, 10 seconds) that made it to climb the platform. The learning course took 6 sessions, each of 3 minutes duration. The conditional response was regarded as acquired if an animal remained on the platform for 1 minute.
The amnesic effect was produced immediately after learning course and 30 minutes thereafter the compound according to the present invention was administered in the doses of 1 and 3 mg/kg or (for comparison) pyracetam was administered in the doses of 100, 300, 600 and 1,000 mg/kg. The reproduction of the memory trace was assessed 24 hours after the electric shock and 2.5 hours after administration of scopolamine.

[1] = tested on: normotensive rats of the Vistar line; experiment: Effect on arterial pressure and heart beat rate; assay type: in vivo
Description: The compound according to the present invention was also tested for its effect on the cardiovascular system.

[2] = Central and peripheral anticholinergic effect (oxotremorine, arecoline, galantamine); assay type: in vivo; conditions: 10 and 25 mg/kg orally and 1.0, 2.0 and 5.0 mg/kg intravenously
Description: The compound according to the present invention was also tested for its central and peripheral anticholinergic effect.

rats = experiment: Acute toxicity, rats; assay type: in vivo
From the text: (§2) The acute and chronical toxicity of the compound according to the present invention was studied on mice, rats and rabbits.

mice, rats and rabbits = experiment: Chronical toxicity, daily administration for 6 months; assay type: in vivo; conditions: daily for 6 months
From the text: as §2
Upon a daily administration of the compound according to the present invention for the period of 6 months no functional disturbances on the part of the inner organs of the animals were observed.

[3] = tested on: fruit fly, embryonic cells of rats, bone-marrow cells of mice, culture of human lymphocytes; experiment: Mutagenous effect tests; conditions: genetic mutations, dominant lethal mutations, chromosome aberrations
Description: The compound according to the present invention was also tested for a possible mutagenous effect by methods of evaluation of genetic mutations on fruit fly: dominant lethal mutations were studied on embryonic cells of rats, chromosome aberrations - in bone-marrow cells of mice and in a culture of human lymphocytes.

mice and rats = experiment: Carcinogenic properties, chronic experiment; assay type: in vivo
[4] = Allergenic, embryotoxic and teratogenic effect; conditions: in vivo
Solubility = assay type: physicochemical
[5] = Overall comparison of pharmacological parameters with pyrazidol; assay type: in vivo; conditions: certain pharmacological parameters
[6] = 5-days' administration, 1.0 mg/kg orally (dose from row order)
[7] = 5-days' administration, 2.5 mg/kg orally (dose from row order)
[8] = 5-days' administration, 5.0 mg/kg orally (dose from row order)
[9] = 18-days' administration, 2.5 mg/kg orally (dose from row order)
[10] = 18-days' administration, 5.0 mg/kg orally (dose from row order)
[11] = single administration, 1.0 mg/kg orally
[12] = single administration, 2.5 mg/kg orally
[13] = single administration, 5.0 mg/kg orally

In the case of “2,3,3a,4,5,6-hexahydro-8-cyclohexyl-1H-pyrazino-(3,2,1-j,k)-carbazole hydrochloride [Compound of the present invention]”, the “Duration of immobilization, Seconds, M±m” value (white mice; [6]) is reported as 102 ± 8.1 s, the “Duration of immobilization, %” value (white mice; [6]) is reported as 61% and the “Duration of immobilization, Seconds, M±m” value (white mice; [7]) is reported as 102 ± 6.1 s. The “Duration of immobilization, %” value (white mice; [7]) was 61%, the “Duration of immobilization, Seconds, M±m” value (white mice; [8]) was 88 ± 5.2 s and the “Duration of immobilization, %” value (white mice; [8]) was 53%. The “Duration of immobilization, %” value (white mice; 18-days' administration, 1.0 mg/kg orally (dose from row order)) was 58%, the “Duration of immobilization, Seconds, M±m” value (white mice; [9]) was 96 ± 11.0 s and the “Duration of immobilization, %” value (white mice; [9]) was 52%. The “Duration of immobilization, Seconds, M±m” value (white mice; [10]) was 75 ± 9.8 s, the “Duration of immobilization, %” value (white mice; [10]) was 41% and the “active in doses lower than those of imipramine and pyrazidol” value (white mice; Porsolt's test, mice, oral) was 10 times. The “Duration of immobilization, Seconds, M±m” value (white mice; [11]) was 145 ± 10.4 s, the “Duration of immobilization, %” value (white mice; [11]) was 92% and the “Duration of immobilization, Seconds, M±m” value (white mice; [12]) was 111 ± 9.9 s. For the same substance, the “Duration of immobilization, %” value (white mice; [12]) was 69%, the “Duration of immobilization, Seconds, M±m” value (white mice; [13]) was 105 ± 8.1 s and the “Duration of immobilization, %” value (white mice; [13]) was 63%. For the same substance, the “Stereotypy (tolal, for 4 measurements for 4 hours after hypodermal administration of d,l-amphetamine), %” value (shortened to “Stereotypy … %”) (white rats; oral dose 2.5 mg/kg) was 145%, the “Stereotypy … %” value (white rats; oral dose 5.0 mg/kg) was 170% and the “Stereotypy … %” value (white rats; oral dose 10.0 mg/kg) was 225%. The “Average value of locomotor activity of a group of 5 mice for 10 minutes” value (“Average value” below) (male white mice; 1.0 mg/kg oral) was 3,482.6±445.5, the “Average value” value (male white mice; 2.5 mg/kg oral) was 3,315.5±462.6 and the “Average value” value (male white mice; 5.0 mg/kg oral) was 4,885.0±537.2. For the same substance, the “frequency of the rhythm of oscillations of biopotentials” value (cats; 2 mg/kg, cats, all recorded regions of the brain cortex, control 8-10 per second) was 20-25 per second, the “amplitudes of oscillations of biopotentials” value (cats; 2 mg/kg, cats, all recorded regions of the brain cortex, control 90-120 µV) was 25-40 µV and the “changes in the bioelectric activity in the cortex and subcortical brain structures” value (cats; 0.5 and 1 mg/kg, intravenously and intraperitoneally, cats and rabbits not distinguished) was “did not bring about any changes”. The “amplitude of sinusoidal regular waves (teta-activity)” value (rabbits; 2 mg/kg, rabbits, hippocampus) was 150-200 µV, the “frequency of sinusoidal regular waves (teta-activity)” value (rabbits; 2 mg/kg, rabbits, hippocampus) was 4-6 oscillations per second and the “frequency of regular low-amplitude rhythms” value (rabbits; 2 mg/kg, rabbits, visual, parietal regions and reticular formation of the midbrain) was 5-7 oscillations per second. For the same substance, the “time after administration at which the variations in the electroencephalogram appeared” value (rabbits; 2 mg/kg, species not given) was 75-90 minutes, the “time after administration at which the effect of activation was recorded” value (rabbits; 5 mg/kg, species not given) was 45 to 60 min and the “Number of rats, %, remained on the platform for 1 minute, 2.5 hours after administration of scopolamine (1 mg/kg hypodermally)” value (male rats; amnesia control 10±3.3, distilled water 85±2.0) was 22±6.0%. The “Number of rats, %, remained on the platform for 1 minute, 1 day after electric shock” value (male rats; electroshock alone 14.2±3.0, distilled water 85±2.0) was 25±3.2%, the heart beat rate ([1]; 10 mg/kg oral daily for 5 days) was “did not change the heart beat rate” and the “effect on the arterial pressure and heart beat rate” value ([1]; 1-100 mg/kg orally, free behaviour) was “no essential effect”. For the same substance, the “central and peripheral anticholinergic effect” value [2] was “absence of the anticholinergic effect”, the LD₅₀ (rats) was 2.5 g/kg and the LD₅₀ (rats; oral administration) was 2,500 mg/kg. For the same substance, the pathomorphological study (mice, rats and rabbits; 100 mg/kg) was “non-specific pathological changes in parenchymatous organs which were of a reversible character”, the pathomorphological study (mice, rats and rabbits; 10 and 50 mg/kg) was “no pathological changes” and the mutagenic properties [3] was “revealed no mutagenic properties”. The carcinogenic properties (mice and rats) was “did not reveal carcinogenic properties”, the “allergenic, embryotoxic or teratogenic effect” value [4] was “did not exhibit an allergenic effect, an embryotoxic or teratogenic effect” and the “solubility in a 95% ethanol and chloroform” value (Solubility) was “very sparingly soluble”. For the same substance, the “solubility in water and ether” value (Solubility) was “substantially insoluble” and the “more active than the known preparation pyrazidol” value [5] was 2-10 times.
